Measured values as given in article PMC5602130, “Food and Sex-Related Impacts on the Pharmacokinetics of a Single-Dose of Ginsenoside Compound K in Healthy Subjects” (Frontiers in Pharmacology, 2017).
Read-outs that look alike come from different tables or passages of the source. Marks after values point to notes of the source that are not given here.

How the values were obtained:
[1] = design: method as in unpublished; details: single oral dose at 800 mg; ref unpublished; cited from earlier work
[2] = Food-effect two-period crossover trial: plasma pharmacokinetics after a single 200 mg oral dose of Ginsenoside CK Tablets; assay type: in vivo, human; details: for AUC(0-inf) / AUC(0-t) / Tmax / Cmax / half-life / MRT inf / MRT last: human, plasma, po, 200 mg; for AUC(0-inf) / AUC(0-t) / Tmax / Cmax / half-life / MRT inf / MRT last / V/F: single oral 200 mg CK; for Tmax: median (range); for Cmax: read-out: Cmax; for half-life: read-out: t1/2 (converted)
Description: The food-effect trial was an open-label, randomized, two-period, two-treatment crossover trial, carried out from 15 January to 31 March 2015. Subjects (n = 24) were admitted to the clinical facility (Center of Clinical Pharmacology, the Third Xiangya Hospital, Central South University, Changsha, China) and randomized to receive a single 200 mg oral dose of Ginsenoside CK Tablets (4 × 50 mg tablets) either after a 10 h-fasting period or within 30 min after beginning the consumption of a recommended high-fat, high calorie breakfast (150 calories of protein, 250 calories of carbohydrates, 500 to 600 calories of fat; total calories approximately 800–1,000). Tablets were administered with 250 mL of water, to each subject, in each treatment period. Drinking was prohibited for 2 h before and after medication. Apart from this, the amount and time of drinking were not strictly controlled. Subjects had unified, standard meals 4 and 10 h after drug administration. The alternate treatment was conducted after a 14-day washout period.
Serial blood samples (5 mL) for PK assessment were collected from an indwelling catheter or by direct venipuncture prior to the administration (t = 0) and 0.25, 0.5, 1, 1.5, 2, 2.5, 3, 3.5, 4, 5, 6, 8, 12, 24, 36, 48, 72, and 96 h after the administration of ginsenoside CK. We inferred that these sampling times were sufficient for this trial, based on international guidelines (FDA, [2003]; CFDA, [2005]) and our previous results, since the sampling time is longer than at least three terminal half-lives of the drug. Additionally, the mean plasma concentrations of both CK and 20(S)-PPD at 96 h were considerably <1/20 of their Cmax even when the single oral dose at 800 mg (unpublished). Plasma was separated in blood collection tubes by centrifugation (3,000 rpm, 10 min) at 4°C within 1 h after sampling, transferred to labeled storage tubes and stored at −70°C pending workup and analysis.
Descriptive statistics of PK parameters were calculated using established non-compartmental methods, utilizing the WinNonLin version 6.1 software (Pharsight Corporation, USA). The PK parameters determined for each participant included apparent terminal half-life (t1/2), maximum plasma concentration (Cmax), time to Cmax (tmax), area under the plasma concentration-time curve from the time of administration up to the last time point with a measurable concentration post-dose (AUClast), AUC extrapolated to infinity (AUCinf), apparent volume of distribution (V/F), apparent plasma clearance (CL/F) after extravascular administration, mean residence time (MRTlast and MRTinf), and the cumulative excretion rate from urine. The t1/2 was estimated as (ln2)/K, where K represented the slope of the terminal phase of plasma concentration-time profile and was assessed with a weighting factor of 1, using least squares (log-linear regression of at least three data points). The Cmax and tmax were obtained from experimental observations. The values of AUC were calculated using conventional trapezoidal and log-trapezoidal methods and the extrapolated area (Rowland and Tozer, [1995]). CL/F and V/F were calculated as dose/AUCinf and (CL/F)/K, respectively. MRT was calculated as MRT = AUMC/AUC, where AUMC is the area under the first moment curve. The cumulative excretion rate was calculated as the amount of unchanged drug over a time interval in the urine divided by dose, and was expressed as a percentage.
All samples were detected using a LC-MS/MS (API 4000, ABI Company, USA) method, validated at the Institute of Clinical Pharmacology, Central South University (Changsha, China). Concentrations of CK and 20(S)-PPD were measured using a triple quadrupole tandem mass spectrometer in multiple reaction monitoring (MRM) mode, via a positive electrospray ionization source at m/z 621.4→ 160.8 for the CK and m/z 461.5→425.3 for 20(S)-PPD, with a dwell time of 200 ms. […]

[3] = geometric mean ratio FO vs. HF, n = 24

CC(C)=CCC[C@](C)(O)C1CC[C@]2(C)C1[C@H](O)CC1[C@@]3(C)CC[C@H](O)C(C)(C)C3CC[C@]12C (stereo partly drawn) [20(S)-PPD, 20(S)-protopanaxadiol]
Mean plasma concentration at 96 h as fraction of Cmax [1]: < 1/20 | lgAUClast GMR (90%CI) ([2]; FO vs. HF (Female), n = 12): 1.83 (1.27–2.64) | lgCmax GMR (90%CI) ([2]; FO vs. HF (Female), n = 12): 1.98 (1.47–2.66) | lgAUClast GMR (90%CI) ([2]; FO vs. HF (Male), n = 12): 1.08 (0.69–1.70) | lgCmax GMR (90%CI) ([2]; FO vs. HF (Male), n = 12): 1.12 (0.74–1.70) | lgAUClast GMR (90%CI) ([2]; M vs. F (FO), n = 12): 0.34 (0.15–0.75) | lgCmax GMR (90%CI) ([2]; M vs. F (FO), n = 12): 0.48 (0.23–0.99) | lgAUClast GMR (90%CI) ([2]; M vs. F (HF), n = 12): 0.57 (0.23–1.41) | lgCmax GMR (90%CI) ([2]; M vs. F (HF), n = 12): 0.84 (0.38–1.84) | AUC(0-inf) ([2]; both sexes, FO, all subjects): 228 ± 96.1 ng·h/mL | AUC(0-t) ([2]; both sexes, FO, all subjects): 161 ± 114 ng·h/mL | AUC(0-inf) ([2]; both sexes, HF, all subjects): 163 ± 95.4 ng·h/mL | AUC(0-t) ([2]; both sexes, HF, all subjects): 116 ± 97.1 ng·h/mL | Tmax ([2]; female, FO): 26 h | Tmax ([2]; female, HF): 26 h | Cmax ([2]; female, FO, female): 6.4 ± 2.7 ng/mL | half-life ([2]; female, FO, female): 19.9 ± 5.5 h | Cmax ([2]; female, HF, female): 3.5 ± 2.1 ng/mL | half-life ([2]; female, HF, female): 21.2 ± 7.6 h | MRT inf ([2]; female, FO): 40.7 ± 7.5 h | MRT last ([2]; female, FO): 36.3 ± 6.8 h | MRT inf ([2]; female, HF): 46.7 ± 8.6 h | MRT last ([2]; female, HF): 37.5 ± 5.8 h | AUC(0-inf) ([2]; female, FO): 225 ± 86.4 ng·h/mL | AUC(0-t) ([2]; female, FO): 203 ± 88.8 ng·h/mL | AUC(0-inf) ([2]; female, HF): 154 ± 99.5 ng·h/mL | AUC(0-t) ([2]; female, HF): 132 ± 97.4 ng·h/mL | lgAUClast GMR (90%CI) [2, 3]: 1.41 (1.05–1.88) | lgCmax GMR (90%CI) [2, 3]: 1.49 (1.15–1.93) | Tmax ([2]; FO, all subjects): 24.5 h | Tmax ([2]; HF, all subjects): 26 h | half-life ([2]; FO (fasting overnight), all subjects): 19.3 ± 6 h | Cmax ([2]; FO, all subjects): 5.7 ± 3.8 ng/mL | half-life ([2]; HF (high-fat meal), all subjects): 21.2 ± 9.8 h | Cmax ([2]; HF, all subjects): 3.7 ± 3 ng/mL | MRT inf ([2]; FO, all subjects): 38.5 ± 9.7 h | MRT last ([2]; FO, all subjects): 31.7 ± 8.4 h | MRT inf ([2]; HF, all subjects): 45.1 ± 9.5 h | MRT last ([2]; HF, all subjects): 33.8 ± 6.9 h | Tmax ([2]; male, FO): 23 h | Tmax ([2]; male, HF): 26 h | Cmax ([2]; male, FO, male): 4.9 ± 4.7 ng/mL | half-life ([2]; male, FO, male): 18.2 ± 7.1 h | Cmax ([2]; male, HF, male): 3.9 ± 3.8 ng/mL | half-life ([2]; male, HF, male): 21.2 ± 13.7 h | MRT inf ([2]; male, FO): 34.5 ± 12.5 h | MRT last ([2]; male, FO): 27 ± 7.4 h | MRT inf ([2]; male, HF): 42.2 ± 11.1 h | MRT last ([2]; male, HF): 30.2 ± 5.9 h | AUC(0-inf) ([2]; male, FO): 234 ± 121 ng·h/mL | AUC(0-t) ([2]; male, FO): 120 ± 124 ng·h/mL | AUC(0-inf) ([2]; male, HF): 178 ± 94.2 ng·h/mL | AUC(0-t) ([2]; male, HF): 100 ± 98.5 ng·h/mL | V/F ([2]; FO, all subjects): 30,348 ± 22,300^a L | V/F ([2]; FO, female): 33,100 ± 27,003^c L | V/F ([2]; FO, male): 25,304 ± 9,268^b L | V/F ([2]; HF, all subjects): 61,539 ± 64,303^a L | V/F ([2]; HF, female): 64,980 ± 64,481^c L | V/F ([2]; HF, male): 55,230 ± 69,586^b L
